The results in this text go back to BindingDB's records for doi:10.1021/jm00075a032 (University of Bologna, 1993).

What is called pKi is −log10 of the Ki, conventionally taken in molar units.

Molecules are shown by their SMILES. pKi: −log10 of the molar value.

For experiment [1], the target named is T1, Muscarinic acetylcholine receptor M2 (Rattus norvegicus, UniProt P10980).
T1 sequence (P10980 whole entry): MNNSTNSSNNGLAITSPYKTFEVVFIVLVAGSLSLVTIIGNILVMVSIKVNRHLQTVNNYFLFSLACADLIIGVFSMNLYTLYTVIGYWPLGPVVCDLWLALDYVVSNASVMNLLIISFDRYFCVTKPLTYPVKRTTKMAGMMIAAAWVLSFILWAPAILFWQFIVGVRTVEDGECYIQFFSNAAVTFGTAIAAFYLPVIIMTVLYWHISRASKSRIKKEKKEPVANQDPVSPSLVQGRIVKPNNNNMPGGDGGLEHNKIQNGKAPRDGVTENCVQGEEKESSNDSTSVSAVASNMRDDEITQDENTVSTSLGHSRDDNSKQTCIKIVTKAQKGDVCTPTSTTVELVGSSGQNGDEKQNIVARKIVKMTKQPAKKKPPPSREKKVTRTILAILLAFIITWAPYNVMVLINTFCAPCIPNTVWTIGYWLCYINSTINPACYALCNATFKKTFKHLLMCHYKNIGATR

The target of experiment [2] is Muscarinic acetylcholine receptor M3 (Rattus norvegicus, UniProt P08483).
For experiment [3], the target named is T2, Muscarinic acetylcholine receptor M1 (Rattus norvegicus, UniProt P08482).
T2 sequence (P08482 whole entry): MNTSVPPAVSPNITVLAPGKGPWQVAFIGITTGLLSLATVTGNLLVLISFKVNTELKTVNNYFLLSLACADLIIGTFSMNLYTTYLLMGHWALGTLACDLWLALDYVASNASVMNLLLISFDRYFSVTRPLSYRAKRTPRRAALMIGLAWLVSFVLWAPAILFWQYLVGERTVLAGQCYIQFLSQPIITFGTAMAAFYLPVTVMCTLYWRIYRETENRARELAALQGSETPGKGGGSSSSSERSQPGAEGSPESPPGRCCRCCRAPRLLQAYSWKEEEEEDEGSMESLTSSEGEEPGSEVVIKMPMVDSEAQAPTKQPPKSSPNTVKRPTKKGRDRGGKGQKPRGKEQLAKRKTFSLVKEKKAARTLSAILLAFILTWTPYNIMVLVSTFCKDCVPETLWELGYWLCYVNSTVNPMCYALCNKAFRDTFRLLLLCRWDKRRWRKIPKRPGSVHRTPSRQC

For experiment [4], the target named is T3, Muscarinic acetylcholine receptor M4 (Rattus norvegicus, UniProt P08485).
T3 sequence (P08485 whole entry): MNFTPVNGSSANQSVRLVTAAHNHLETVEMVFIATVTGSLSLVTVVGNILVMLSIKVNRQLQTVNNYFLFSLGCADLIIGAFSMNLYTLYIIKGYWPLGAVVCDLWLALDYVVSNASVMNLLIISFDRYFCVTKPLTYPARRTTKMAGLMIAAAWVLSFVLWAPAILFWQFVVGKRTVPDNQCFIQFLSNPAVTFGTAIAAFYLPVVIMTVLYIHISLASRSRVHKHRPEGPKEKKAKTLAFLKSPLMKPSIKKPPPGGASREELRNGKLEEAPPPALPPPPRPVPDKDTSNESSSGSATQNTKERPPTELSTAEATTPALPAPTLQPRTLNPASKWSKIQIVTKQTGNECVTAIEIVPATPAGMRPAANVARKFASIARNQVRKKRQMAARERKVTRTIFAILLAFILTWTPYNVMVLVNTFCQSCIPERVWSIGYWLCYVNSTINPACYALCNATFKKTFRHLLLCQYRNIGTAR

Sequence of Muscarinic acetylcholine receptor M3 (P08483 whole entry): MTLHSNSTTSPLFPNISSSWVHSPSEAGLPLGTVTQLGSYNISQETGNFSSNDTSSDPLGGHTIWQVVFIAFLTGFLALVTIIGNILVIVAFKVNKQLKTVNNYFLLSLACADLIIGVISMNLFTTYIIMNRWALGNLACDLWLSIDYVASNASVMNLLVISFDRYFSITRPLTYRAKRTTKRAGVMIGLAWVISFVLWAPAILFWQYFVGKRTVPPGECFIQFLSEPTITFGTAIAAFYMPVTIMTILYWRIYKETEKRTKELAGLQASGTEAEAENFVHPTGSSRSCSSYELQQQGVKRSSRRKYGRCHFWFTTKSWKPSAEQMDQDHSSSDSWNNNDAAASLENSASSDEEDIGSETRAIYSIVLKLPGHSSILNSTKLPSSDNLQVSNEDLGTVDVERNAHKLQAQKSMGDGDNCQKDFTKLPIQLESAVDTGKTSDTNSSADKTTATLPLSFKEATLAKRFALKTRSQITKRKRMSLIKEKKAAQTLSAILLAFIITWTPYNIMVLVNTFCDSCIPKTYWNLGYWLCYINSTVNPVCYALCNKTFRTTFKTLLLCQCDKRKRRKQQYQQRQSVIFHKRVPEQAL

For the compound `CN(CCCCCCNCCCCCCCCNCCCCCCN(CN1c2ccccc2C(=O)Nc2cccnc21)CN1c2ccccc2C(=O)Nc2cccnc21)CN1c2ccccc2C(=O)Nc2cccnc21` [methoctramine analog 5], the pKi is 9.54 in experiment [1], 6.19 in experiment [2], 7.63 in experiment [3] and 7.93 in experiment [4].
